{
  "source": "patent US20170023550A1",
  "about": "“ENGINEERED THREE-DIMENSIONAL BREAST TISSUE, ADIPOSE TISSUE, AND TUMOR DISEASE MODEL” (Organovo, Inc., priority 2014, published 2017)",
  "assay_type_in_all_cases": "cell-based, human",
  "key": {"[1]": {"system": "bioprinted breast cancer tumor models (cancer and stromal compartments)", "experiment": "Apoptosis by TUNEL staining with CK8 and TE7 markers in bioprinted breast cancer tumor model", "details": "100 μM cisplatin for 4 days; FIG. 22", "excerpt": "(§1) The breast cancer tumor models included a nodule of human breast cancer cells surrounded by a physiologically-relevant stromal layer, which included human adipocytes differentiated from human mesenchymal stem cells, human mammary fibroblasts, and human endothelial cells. The adipocytes were derived from mesenchymal stem cells which were isolated an exposed to an adipocyte differentiation signal prior to preparation of the bio-ink and bioprinting.\nReferring to FIG. 22, bioprinted tissues were treated with vehicle (A-C) or 100 μM cisplatin (D-F) for 4 days. The first (A and D) and second (B and E) columns depict tissues assessed for apoptosis by TUNEL staining (green) and markers for cancer cells (CK8, red). The last ([…]) column depicts tissues assessed for apoptosis by TUNEL staining (green) and markers for fibroblasts (TE7, red)."}, "[2]": {"system": "bioprinted breast cancer constructs (MCF7/HUVEC cancer node surrounded by NHMF, HUVEC, SPA stroma)", "experiment": "Construct viability after drug treatment by alamarBlue assay", "details": "10 μM compound for 3 days, followed by 100 μM compound for 24 hours; FIG. 14", "description": "The stromal compartment of the constructs was comprised of 65% NHMF, 25% HUVEC, and 10% SPA (partially pre-differentiated). The cancer compartment of the constructs was comprised of 75% MCF7, 25% HUVEC. For each compartment, cells were mixed together at the indicated ratio and resuspended in Novogel® 3.0 at a concentration of 150 million cells/ml. Constructs were printed as 3 layered structures with a dimension of 3 mm×3 mm×0.75 mm. Immediately following bioprinting, constructs were stabilized via crosslinking After 2 minutes, the calcium crosslinking solution was aspirated and replaced with culture media. After 2 days in culture, constructs were treated overnight with enzyme dissolved in culture media to remove the Novogel® 3.0. Constructs were then incubated for up to 9 additional days. All compounds were acquired from Sigma-Aldrich and were dissolved in DMSO. Compounds were diluted to a final concentration of 10 μM or 100 μM in media. The final DMSO concentration was 0.1%, which was used for vehicle treatment. Constructs were assessed for metabolic activity by alamarBlue assay (Life Technologies, Carlsbad, Calif.) or CellTiter Glo assay (Promega, Madison, Wis.). Constructs were treated for 24 hours for labeled compound uptake studies, or for 4 days for assessment of metabolic activity."}, "[3]": {"system": "breast cancer cells in two-dimensional cell culture and bioprinted breast cancer tumor models", "experiment": "Tamoxifen drug response by ATP luciferase assay, two-dimensional breast cancer cell culture compared to bioprinted breast cancer tumor models", "details": "10 μM tamoxifen for 48 hours; FIG. 20", "excerpt": "as §1\nThe breast cancer tumor models were exposed to chemotherapy compounds in order to access drug response. Referring to FIG. 20, breast cancer cells grown in two-dimensional cell culture (A) and the bioprinted breast cancer tumor models (B) were treated with media alone, DMSO, or 10 μM tamoxifen for 48 hours and assessed for viability by ATP luciferase assay. For each graph, * indicates p<0.05 for treatment compared to control."}},
  "data": [
    {"smiles": "N.N.[Cl][Pt][Cl]", "note": "[Cisplatin, cisplatin]", "values": [
      {"measurement": "apoptosis by TUNEL staining, stromal compartment vs cancer compartment", "setting": "[1]", "result": "induces greater apoptosis in the stromal compartment of bioprinted tissues than in the cancer compartment"},
      {"measurement": "construct viability relative to media or vehicle controls (alamarBlue)", "setting": "[2]", "result": "decreased construct viability"}
    ]},
    {"smiles": "CC(=O)O[C@H]1C(=O)[C@@]2(C)[C@H]([C@H](OC(=O)c3ccccc3)[C@]3(O)C[C@H](OC(=O)[C@H](O)[C@@H](NC(=O)c4ccccc4)c4ccccc4)C(C)=C1C3(C)C)[C@]1(OC(C)=O)CO[C@@H]1C[C@@H]2O", "note": "[paclitaxel]", "values": [
      {"measurement": "construct viability relative to media or vehicle controls (alamarBlue)", "setting": "[2]", "result": "decreased construct viability"}
    ]},
    {"smiles": "CC/C(=C(\\c1ccccc1)c1ccc(OCCN(C)C)cc1)c1ccccc1", "note": "[tamoxifen]", "values": [
      {"measurement": "susceptibility to tamoxifen-induced toxicity, two-dimensional cancer cells vs three-dimensional bioprinted constructs (viability by ATP luciferase assay)", "setting": "[3]", "result": "more susceptible to tamoxifen-induced toxicity than cells incorporated into three-dimensional bioprinted constructs"}
    ]}
  ]
}
